System: D. folliculorum
Assay: In-vitro culture of Demodex mites: effect of compounds on survival time
Type: cell-based
Conditions: for Survival time: in vitro, 35 μL solution in 10% DMSO on glass slide, observed every 2 hours, mean ± spread; for Survival time / survival time of the Demodex mites in vitro: 20° C., humidity 96%; for survival time of the Demodex mites in vitro: compared with negative control 10% DMSO (80.79±25.34); for effect on survival time of mites as compared with the control group (in words): versus 10% DMSO negative control
Procedure: The powders of the reference compounds shown in Table 1 were separately dissolved in dimethyl sulfoxide (DMSO), and then diluted with sterilized double-distilled water to make the final concentration of DMSO 10%, which could not shorten the survival time of Demodex mites as per a controlled study. The negative control group received DMSO mixed with sterilized water at a final concentration of 10%.
35 μL of each solution was added to a glass slide, and the survival of the mites was observed under an optical microscope every 2 hours. During the experiment, the Demodex mites were observed by two skilled operators separately for the activities (bodies, limbs and the like) through the microscope to determine whether they were dead or not. If the two operators gave different results, the survival status was determined independently by a third skilled operator. The in-vitro culture was conducted in a climatic chamber at a temperature of 20° C. and a humidity of 96%. During the observation, the glass slides were transported in a wet box to ensure the high humidity.
In this experiment, statistical analysis was conducted using SPSS22.0 statistical software, normality test was conducted using Shapiro-Wilk test, and homogeneity of variance test was conducted using Bartlett's test.
Effects of compounds on survival time of D. folliculorum The in-vitro culture of the Demodex mites was conducted in an environment at a humidity of 96% and a temperature of 20° C. The survival of the Demodex mites was observed dynamically and the survival time was recorded.

| SMILES | Survival time [h] | survival time of the Demodex mites in vitro | effect on survival time of mites as compared with the control group (in words) |
| --- | --- | --- | --- |
| C=C1CC[C@]2(C)CC[C@]3(C)[C@H](CC[C@@H]4[C@@]5(C)CC[C@H](O)C(C)(C)[C@@H]5CC[C@]43C)[C@H]2[C@@H]1C [Taraxasterol] | 68.28 ± 31.30 |  |  |
| C=C1CC[C@]2(C)CC[C@]3(C)[C@H](CC[C@@H]4[C@@]5(C)CC[C@H](OC(C)=O)C(C)(C)[C@@H]5CC[C@]43C)[C@H]2[C@@H]1C [Taraxasterol acetate] | 34.14 ± 22.96 | 37.91±20.96 | significantly shorten the survival time of mites |
| C=C(C)[C@@H]1CC[C@]2(C)[C@H](CC=C3[C@@H]4[C@@H](C)[C@H](C)CC[C@]4(C)CC[C@]32C)[C@@]1(C)CCC(=O)O [Roburic acid] | 63.41 ± 12.20 |  |  |
| C=C[C@H]1[C@H](O[C@@H]2O[C@H](CO)[C@@H](O)[C@H](O)[C@H]2O)OC=C2C(=O)OCC[C@H]21 [Sweroside] | 60.79 ± 25.98 |  |  |
| C=C[C@H]1[C@H](O[C@@H]2O[C@H](CO)[C@@H](O)[C@H](O)[C@H]2O)OC=C2C(=O)OCC[C@]21O [Swertiamarin] | 59.68 ± 10.97 |  |  |
| COc1ccc(-c2cc(=O)c3c(O)cc(O)cc3o2)cc1O [Diosmetin] | 35.92 ± 14.82 | 35.92±14.82 | significantly shorten the survival time of mites |
| C[C@@H]1[C@H]2[C@H](O[C@@H]3O[C@H](CO)[C@@H](O)[C@H](O)[C@H]3O)OC=C(C(=O)O)[C@H]2C[C@@H]1O [Loganic acid] | 61.56 ± 22.84 |  |  |
| CC1(C)CC[C@]2(C)CC=C3[C@]4(C)CC[C@H]5C(C)(C)[C@@H](O)CC[C@]5(C)[C@H]4CC[C@@]3(C)[C@@H]2C1 [Taraxerol] | 37.91 ± 20.96 | 37.91±20.96 | significantly shorten the survival time of mites |
| C=C(C)[C@@H]1CC[C@]2(C)CC[C@]3(C)[C@H](CC[C@@H]4[C@@]5(C)CCC(=O)C(C)(C)[C@@H]5CC[C@]43C)[C@@H]12 [Lupenone] | 66.25 ± 31.22 |  |  |
| C=C[C@@H]1C2=CCOC(=O)C2=CO[C@H]1O[C@@H]1O[C@H](CO)[C@@H](O)[C@H](O)[C@H]1O [Gentiopicroside] | 37.31 ± 36.06 | 37.31±36.06 | significantly shorten the survival time of mites |
| CC(=O)O[C@H]1CC[C@]2(C)[C@H]3CC[C@]4(C)C(=CC[C@@]5(C)CCC(C)(C)C[C@H]54)[C@]3(C)CC[C@H]2C1(C)C [Taraxeryl acetate] | 70.57 ± 27.45 |  |  |
| CC1(C)CC[C@]2(C)CC=C3[C@]4(C)CC[C@H]5C(C)(C)C(=O)CC[C@]5(C)[C@H]4CC[C@@]3(C)[C@@H]2C1 [Taraxerone] | 62.06 ± 28.97 |  |  |

Reference: patent US20230172945A1, “APPLICATION OF COMPOUNDS IN CONTROLLING OR KILLING MITES” (SMILEBIOTEK ZHUHAI LIMITED, priority 2020, published 2023)
